Test results as given in ChEMBL document CHEMBL1151057, “Difunctional enols of N-protected amino acids as low molecular weight and novel inhibitors of HIV-1 protease” (Bioorg Med Chem Lett, 1993).

target: T1, Human immunodeficiency virus type 1 protease (Human immunodeficiency virus 1, UniProt Q72874); assay: Inhibitory concentration required to inhibit HIV-1 protease was determined; settings: not given

| IC50 | Structure (SMILES) |
| --- | --- |
| 58 µM | CC(C)(C)OC(=O)NCC(=O)N[C@@H](Cc1ccccc1)/C(O)=C(\C#N)c1ccc([N+](=O)[O-])cc1 |

target: T1, Human immunodeficiency virus type 1 protease; assay: Inhibitory constant against HIV-1 protease was determined; settings: not given

| Ki | Structure (SMILES) |
| --- | --- |
| 9.5 µM | CC(=O)NC(CC(C)C)C(=O)N[C@@H](Cc1ccccc1)/C(O)=C(\C#N)c1ccc([N+](=O)[O-])cc1 (stereo partly drawn) |
| 168 µM | CC(=O)NC(CC(C)C)C(=O)N[C@@H](Cc1ccccc1)/C(O)=C(\C#N)c1ccncc1 (stereo partly drawn) |
| 206 µM | CCOP(=O)(OCC)/C(C#N)=C(\O)[C@H](Cc1ccccc1)NC(=O)C(CC(C)C)NC(C)=O (stereo partly drawn) |
| 152 µM | CC(=O)NC(CC(C)C)C(=O)N[C@@H](Cc1ccccc1)/C(O)=C(\C#N)S(=O)(=O)c1ccccc1 (stereo partly drawn) |
| 209 µM | CO/C(O)=C(/C#N)C(=O)[C@H](Cc1ccccc1)NC(=O)C(CC(C)C)NC(C)=O (stereo partly drawn) |

target: T1, Human immunodeficiency virus type 1 protease; assay: Apparent inhibitory constant against HIV-1 protease was determined; settings: read-out: Ki app

| Ki | Structure (SMILES) |
| --- | --- |
| 0.48 µM | CC(C)(C)OC(=O)N[C@@H](Cc1ccccc1)/C(O)=C(\C#N)c1c(F)c(F)c(F)c(F)c1F |
| 9 µM | CC(=O)NC(CC(C)C)C(=O)N[C@@H](Cc1ccccc1)/C(O)=C(\C#N)c1ccc([N+](=O)[O-])cc1 (stereo partly drawn) |
| 30 µM | N#C/C(=C(/O)[C@H](Cc1ccccc1)NC(=O)OCc1ccccc1)c1ccc([N+](=O)[O-])cc1 |
| 689 µM | CC(C)(C)OC(=O)N[C@@H](C(=O)C(N)Cc1ccccc1)/C(O)=C/c1ccc([N+](=O)[O-])cc1 (stereo partly drawn) |
| 54 µM | CC(C)(C)OC(=O)N[C@@H](C(=O)[C@@H](N)Cc1ccccc1)/C(O)=C(\C#N)c1ccc([N+](=O)[O-])cc1 |
| 15 µM | CC(C)(C)OC(=O)N[C@@H](C(=O)C(N)CC1CCCCC1)/C(O)=C(\C#N)c1ccc([N+](=O)[O-])cc1 (stereo partly drawn) |
| 30 µM | CC(C)(C)OC(=O)N[C@@H](C(=O)C(N)c1ccccc1)/C(O)=C(\C#N)c1ccc([N+](=O)[O-])cc1 (stereo partly drawn) |
| 18 µM | CC(C)(C)OC(=O)N[C@@H](C(=O)C(N)Cc1c[nH]c2ccccc12)/C(O)=C(\C#N)c1ccc([N+](=O)[O-])cc1 (stereo partly drawn) |
| 60 µM | CC(C)(C)OC(=O)N[C@@H](C(=O)C(N)Cc1ccc([N+](=O)[O-])cc1)/C(O)=C(\C#N)c1ccc([N+](=O)[O-])cc1 (stereo partly drawn) |
| 38 µM | CC(C)(C)OC(=O)N[C@@H](C(=O)C(N)Cc1ccc2ccccc2c1)/C(O)=C(\C#N)c1ccc([N+](=O)[O-])cc1 (stereo partly drawn) |
| 2.3 µM | CC(C)(C)OC(=O)N[C@@H](Cc1ccccc1)/C(O)=C(\C#N)c1ccc([N+](=O)[O-])cc1 |
| 7 µM | CC(=O)NC(CC(C)C)C(=O)N[C@@H](Cc1ccccc1)/C(O)=C(\C#N)c1c(F)c(F)c(F)c(F)c1F (stereo partly drawn) |
| 78 µM | N#C/C(=C(/O)[C@H](Cc1ccccc1)NC(=O)OCC1c2ccccc2-c2ccccc21)c1ccc([N+](=O)[O-])cc1 |
| 181 µM | CC(C)(C)OC(=O)N[C@@H](C(=O)C1CCCN1)/C(O)=C(\C#N)c1ccc([N+](=O)[O-])cc1 (stereo partly drawn) |
| 320 µM | CC(C)(C)OC(=O)N[C@H](C(=O)/C(C#N)=C(\O)c1ccccc1)C(=O)C(N)Cc1ccccc1 (stereo partly drawn) |
| 12 µM | CC(C)(C)OC(=O)N[C@@H](C(=O)C(N)Cc1ccc(OCc2ccccc2)cc1)/C(O)=C(\C#N)c1ccc([N+](=O)[O-])cc1 (stereo partly drawn) |

target: T1, Human immunodeficiency virus type 1 protease; assay: Inhibitory constant against HIV-1 protease at 400 uM; NI means no inhibition; settings: not given

| Structure (SMILES) | Ki |
| --- | --- |
| CC(=O)NC(CC(C)C)C(=O)N[C@@H](Cc1ccccc1)C(O)=C(C#N)C#N (stereo partly drawn) | Not Active |
